Assay results published in patent publication US4920119A, “Triazine derivatives” (Hoffmann-La Roche Inc., priority 1986, dated 1990).

molecular target: T1, Xanthine oxidase (Rattus norvegicus, UniProt P22985); test: xanthine oxidase inhibiting activity (xanthine oxidase-catalyzed oxidation of xanthine to uric acid); format: biochemical; settings: xanthine oxidase from rat liver; 10^-5 molar xanthine, 0.1M tris hydrochloride pH 8.1, 30° C., uric acid formation at 293 nm
T1 construct: Xanthine oxidase was obtained from rat liver; from tissue; host or cells: rat liver
Description: Xanthine oxidase was obtained from rat liver according to the method described by E. Della Corte and F. Stirpe in Biochem.J. 117, 97 (1970) and was aged for at least 24 hours prior to use. Solutions of 3 ml of 0.1M aqueous tris hydrochloride buffer (pH 8.1) containing 10^-5 molar xanthine were treated with 200 μl of xanthine oxidase dissolved in 0.1M aqueous tris hydrochloride buffer (pH 8.1) and incubated at 30° C. in the presence and absence of a test substance, whereupon the formation of uric acid from xanthine was monitored by measuring the light absorption at 293 nm. The IC50 , namely that concentration of a test substance required to inhibit by 50% the xanthine oxidase-catalyzed oxidation of xanthine to uric acid, was then determined.

T1 sequence (P22985 whole entry): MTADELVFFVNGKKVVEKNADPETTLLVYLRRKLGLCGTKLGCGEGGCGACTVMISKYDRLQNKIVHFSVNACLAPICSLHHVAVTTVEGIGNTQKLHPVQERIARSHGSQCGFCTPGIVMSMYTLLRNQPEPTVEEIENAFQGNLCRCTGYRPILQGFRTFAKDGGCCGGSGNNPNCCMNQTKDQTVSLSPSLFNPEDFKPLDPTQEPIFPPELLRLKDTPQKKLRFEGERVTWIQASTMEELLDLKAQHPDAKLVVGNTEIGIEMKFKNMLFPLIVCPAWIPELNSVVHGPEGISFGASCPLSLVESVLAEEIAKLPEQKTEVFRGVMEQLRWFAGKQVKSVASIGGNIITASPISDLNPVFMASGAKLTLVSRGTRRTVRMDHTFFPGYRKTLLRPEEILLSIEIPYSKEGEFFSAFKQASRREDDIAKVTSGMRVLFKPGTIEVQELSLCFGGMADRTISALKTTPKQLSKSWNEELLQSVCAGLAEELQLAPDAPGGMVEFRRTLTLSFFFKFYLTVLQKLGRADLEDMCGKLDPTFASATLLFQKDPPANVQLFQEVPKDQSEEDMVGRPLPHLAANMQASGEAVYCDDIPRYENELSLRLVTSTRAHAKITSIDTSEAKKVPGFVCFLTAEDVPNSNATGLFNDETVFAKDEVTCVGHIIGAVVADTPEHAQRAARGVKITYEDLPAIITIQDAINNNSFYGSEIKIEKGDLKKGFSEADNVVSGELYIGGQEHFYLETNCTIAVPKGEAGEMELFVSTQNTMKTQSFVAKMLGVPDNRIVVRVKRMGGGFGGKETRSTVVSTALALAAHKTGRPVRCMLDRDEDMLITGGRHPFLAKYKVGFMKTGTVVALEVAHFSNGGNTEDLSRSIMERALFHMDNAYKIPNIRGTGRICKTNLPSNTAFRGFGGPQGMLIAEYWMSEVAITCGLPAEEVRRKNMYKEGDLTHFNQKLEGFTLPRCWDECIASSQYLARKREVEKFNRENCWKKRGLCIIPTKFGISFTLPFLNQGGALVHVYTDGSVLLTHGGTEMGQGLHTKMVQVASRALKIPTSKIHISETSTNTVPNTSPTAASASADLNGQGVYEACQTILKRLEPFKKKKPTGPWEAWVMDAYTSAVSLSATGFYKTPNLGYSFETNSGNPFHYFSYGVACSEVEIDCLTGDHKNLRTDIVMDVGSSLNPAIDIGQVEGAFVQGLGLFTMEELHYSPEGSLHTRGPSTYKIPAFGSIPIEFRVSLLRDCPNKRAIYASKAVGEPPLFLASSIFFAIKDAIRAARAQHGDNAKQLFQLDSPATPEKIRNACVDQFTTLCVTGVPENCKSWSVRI

IC50 [nM] | Compound
35 | O=c1[nH]nnc2c1cnn2-c1cccc(C(F)(F)F)c1 [7-(3-Trifluoromethylphenyl)-7H-pyrazolo[3,4-d]-1,2,3-triazin-4(3H)-one]
6 | COc1ccc(-n2ncc3c(=O)[nH]nnc32)cc1Cl [7-(3-chloro-4-methoxyphenyl)-7H-pyrazolo[3,4-d]-1,2,3-triazin-4(3H)-one]
4 | COc1ccc(-c2nsc3c(=O)[nH]nnc23)cc1Cl [7-(3-chloro-4-methoxyphenyl)isothiazolo[4,5-d]-1,2,3-triazin-4(3H)-one]
8 | COc1ccc(-c2nsc3c(=O)[nH]nnc23)cc1F [7-(3-fluoro-4-methoxyphenyl)isothiazolo[4,5-d]-1,2,3-triazin-4(3H)-one]
4 | COc1ccc(-c2nsc3c(=O)[nH]nnc23)cc1C(F)(F)F [7-(3-trifluoromethyl-4-methoxyphenyl)isothiazolo[4,5-d]-1,2,3-triazin-4(3H)-one]
7 | CC(=O)Nc1ccc(-c2nsc3c(=O)[nH]nnc23)cc1 [7-(4-acetamidophenyl)isothiazolo[4,5-d]-1,2,3-triazin-4(3H)-one]
18 | CSc1ccc(-n2ncc3c(=O)[nH]nnc32)cc1 [7-(4-methylthiophenyl)-7H-pyrazolo[3,4-d]-1,2,3-triazin-4(3H)-one]
48 | O=c1[nH]nnc2c(-c3cccc(C(F)(F)F)c3)nccc12 [8-(3-trifluoromethylphenyl)pyrido[3,4-d]-1,2,3-triazin-4(3H)-one]
